Source: publication PMC7280195, “Simple ammonium salts acting on sigma-1 receptors yield potential treatments for cancer and depression” (Scientific Reports, 2020)
Where a name gives a salt, the structure may show the parent alone. Read-outs that look alike come from different tables or passages of the source.

Tests used:
[1] = target: T1, sigma-2 receptor (Homo sapiens, UniProt Q5BJF2); test: biochemical; type: binding
T1 construct: MCF7 cells were suspended in sigma-2 assay buffer (50 mM Tris-HCl; pH 8.0), sonicated (1 minute) and the homogenate was centrifuged; endogenous in cells; host or cells: MCF7 cells (gift), membrane pellet

[2] = target: noradrenaline transporter; conditions: read-out: Ki noradrenaline transport, previously published; cited from earlier work
[3] = target: muscarinic receptor; parameters: method as in PMID 11834244; conditions: cited from earlier work
[4] = tested on: mice; test: Forced-swim test; type: in vivo
[5] = tested on: MDA-MB-468 cells; test: cells; type: cell-based
[6] = tested on: MDA-MB-468 cells; test: Fura-2 cytoplasmic calcium measurement in MDA-MB-468 cells; type: cell-based; conditions: calcium response could not be assessed
[7] = tested on: dopamine transporter; parameters: method as in PMID 10525084; conditions: read-out: dopamine transport inhibition, previously published; cited from earlier work
[8] = tested on: MCF7 cells; type: cell-based; conditions: MCF7 cells (sigma-2 only)
[9] = target: muscarinic acetylcholine receptor; type: binding, rat; conditions: rat brain membranes; for mACh R affinity pKi ± SEM (n): 1.35 nM [3H] QNB
[10] = tested on: mice; test: Tail suspension test; type: in vivo; conditions: 10 mg.kg−1, 6 minutes; control 235 ± 19

T1 sequence (Q5BJF2 whole entry): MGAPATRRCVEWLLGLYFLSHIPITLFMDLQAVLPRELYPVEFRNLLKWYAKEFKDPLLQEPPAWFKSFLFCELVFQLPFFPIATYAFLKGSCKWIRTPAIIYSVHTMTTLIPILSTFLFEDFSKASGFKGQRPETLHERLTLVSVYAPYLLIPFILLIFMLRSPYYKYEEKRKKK

| SMILES | σ-2 R affinity pKi ± SEM (n) [1] | Ki ([1]; read-out: σ-2 R affinity Ki) | also measured |
| --- | --- | --- | --- |
| CCCN [Propyl] | <3 (3) |  |  |
| CNCCCN1c2ccccc2CCc2ccccc21 [Desipramine, desipramine] |  |  | Ki [2]: 0.0043 µM |
| CC(C)=CCN1CC[C@]2(C)c3cc(O)ccc3C[C@H]1[C@H]2C [(+) pentazocine] |  |  | pKi muscarinic receptor [3]: 6.29 ± 0.06 |
| CC[N+](CC)(CC)CC [Tetraethyl] | <3 (3) |  |  |
| CN(C)CCN(C)CCc1ccc(Cl)c(Cl)c1 [BD1047, N’-[2-(3,4-dichlorophenyl)ethyl]-N,N,N’-trimethylethane-1,2-diamine, reference compound] |  |  | time spent immobile, forced-swim test ([4]; ip, 4 mg/kg, 0.1 h): 217 ± 17 s |
| CCCCCCCCNCCCCCCCC [Dioctyl, dioctylammonium] | 7.9 ± 0.5 (3) | 0.014 µM | pIC50 reduction of cell metabolism [5]: 5.0 ± 0.2; Ki ([1]; read-out: Ki for sigma-2 receptors): 0.013 µM; behaviour in the calcium buffer [6]: precipitation was observed |
| CCCCCCN(CCCCCC)CCCCCC [Trihexyl, trihexylammonium] | 6.63 ± 0.03 (3) | 0.23 µM |  |
| CCN(CC)CC [Triethyl] | 3.66 ± 0.04 (3) | 220 µM |  |
| CCCCCCCCCCCCN(CCCCCCCCCCCC)CCCCCCCCCCCC [Tridodecyl] | 4.1 ± 0.6 (3) | 76 µM |  |
| CC(C)CN(CC(C)C)CC(C)C.Cl [Triisobutyl] | 5.46 ± 0.06 (3) | 3.5 µM |  |
| CCCCCCCCN.Cl [Octyl] | 5.2 ± 0.2 (3) | 6.2 µM |  |
| C1CCC(NC2CCCCC2)CC1 [Dicyclohexyl, dicyclohexylammonium] |  |  | IC50 ([5]; Homo sapiens, MDA-MB-468, 24 h, read-out: pIC50 reduction of cell metabolism (converted)): 126 µM; effect on MCF7 cells in MTS assay [8]: without effect; Ki [1]: 0.138 µM |
| C[C@@H]1CN(CCCn2c3ccccc3c3ccccc32)C[C@H](C)N1 [Rimcazole, 9-[3-(cis−3,5-dimethyl-1-piperizinyl)propyl]-9H-carbazole dihydrochloride, reference compound] |  |  | mACh R affinity pKi ± SEM (n) [9]: 4.49 ± 0.10 (7); mACh R affinity pKi ± SEM (n) ([9]; listed as rimcazole): 4.5 ± 0.1; Ki ([9]; read-out: mACh R affinity Ki): 32 µM |
| CCCCN [Butyl] | 3.26 ± 0.05 (3) | 550 µM |  |
| CNCCC(Oc1ccc(C(F)(F)F)cc1)c1ccccc1 (centres unmarked) [Fluoxetine, fluoxetine, reference compound] |  |  | time spent immobile, tail suspension test [10]: 126 ± 22 s; time spent immobile, forced-swim test ([4]; 10 mg.kg−1 i.p., 6 minutes, control 233 ± 10): 153 ± 19 s |
| CCCCCN [Pentyl] | 3.9 ± 0.1 (3) | 130 µM |  |
| CCC(C)NC(C)CC (centres unmarked) [Di-sec-butyl, di-sec-butylammonium] | 5.2 ± 0.2 (3) | 6.3 µM |  |
